# Results: patent publication US6737383B1, “Herbicidal oxadiazolidines” (priority 1999, dated 2004)
# How the values were obtained:
# [1] = test system: giant foxtail; experiment: Test B pre/postemergence giant foxtail; format: in vivo, Setaria faberii
# Description: (§1) Seeds of bedstraw (Galium aparine), blackgrass (Alopecurus myosuroides), surinam grass (Brachiaria decumbens), cocklebur (Xanthium strumarium), corn (Zea mays), crabgrass (Digitaria sanguinalis), giant foxtail (Setaria faberii), morningglory (Ipomoea hederacea), pigweed (Amaranthus retroflexus), rape (Brassica napus), soybean (Glycine max), sugar beet (Beta vulgaris), velvetleaf (Abutilon theophrasti), wheat (Triticum aestivum), wild oat (Avena fatua) and purple nutsedge (Cyperus rotundus) tubers were planted and treated preemnergence with test chemicals formulated in a non-phytotoxic solvent mixture which included a surfactant.
# (§2) At the same time, these crop and weed species were also treated with postemergence applications of test chemicals formulated in the same manner. Plants ranged in height from 2 to 18 cm (1- to 4-leaf stage) for postemergence treatments. Plant species in the flood test consisted of rice (Oryza sativa), smallflower flatsedge (Cyperus difformis), duck salad (Heteranthera limosa) and bamyardgrass (Echinochloa crus-galli) grown to the 2-leaf stage for testing. Treated plants and controls were maintained in a greenhouse for twelve to sixteen days, after which all species were compared to controls and visually evaluated. Plant response ratings, summarized in Table B, are based on a scale of 0 to 10 where 0 is no effect and 10 is complete control. A dash (−) response means no test result.
# [2] = test system: surinam grass; experiment: Test B pre/postemergence surinam grass; format: in vivo, Brachiaria decumbens
# Description: as §1, §2
# [3] = test system: purple nutsedge; experiment: Test B pre/postemergence purple nutsedge; format: in vivo, Cyperus rotundus
# Description: as §1, §2
# [4] = test system: soybean; experiment: Test B pre/postemergence soybean; format: in vivo, Glycine max
# Description: as §1, §2
# [5] = test system: wheat; experiment: Test B pre/postemergence wheat; format: in vivo, Triticum aestivum
# Description: as §1, §2
# [6] = test system: crabgrass; experiment: Test B pre/postemergence crabgrass; format: in vivo, Digitaria sanguinalis
# Description: as §1, §2
# [7] = test system: corn; experiment: Test B pre/postemergence corn; format: in vivo, Zea mays
# Description: as §1, §2
# [8] = test system: velvetleaf; experiment: Test B pre/postemergence velvetleaf; format: in vivo, Abutilon theophrasti
# Description: as §1, §2
# [9] = test system: wild oat; experiment: Test B pre/postemergence wild oat; format: in vivo, Avena fatua
# Description: as §1, §2
# [10] = test system: bedstraw; experiment: Test B pre/postemergence bedstraw; format: in vivo, Galium aparine; conditions: Preemergence; for Bedstraw plant response rating: scale 0 to 10, 0 is no effect, 10 is complete control
# Description: as §1, §2
# [11] = test system: pigweed; experiment: Test B pre/postemergence pigweed; format: in vivo, Amaranthus retroflexus
# Description: as §1, §2
# [12] = test system: blackgrass; experiment: Test B pre/postemergence blackgrass; format: in vivo, Alopecurus myosuroides
# Description: as §1, §2
# [13] = test system: morningglory; experiment: Test B pre/postemergence morningglory; format: in vivo, Ipomoea hederacea
# Description: as §1, §2
# [14] = test system: sugar beet; experiment: Test B pre/postemergence sugar beet; format: in vivo, Beta vulgaris
# Description: as §1, §2
# [15] = test system: cocklebur; experiment: Test B pre/postemergence cocklebur; format: in vivo, Xanthium strumarium
# Description: as §1, §2
# [16] = test system: rape; experiment: Test B pre/postemergence rape; format: in vivo, Brassica napus
# Description: as §1, §2
# [17] = Postemergence, Rate 62 g/ha, scale of 0 to 10, 0 is no effect, 10 is complete control
# [18] = Postemergence, Rate 125 g/ha, scale 0 to 10, 0 is no effect, 10 is complete control
# [19] = Postemergence, Rate 500 g/ha, scale 0 to 10, 0 is no effect, 10 is complete control
# [20] = Preemergence, Rate 62 g/ha, scale of 0 to 10 where 0 is no effect and 10 is complete control
# [21] = Preemergence, Rate 125 g/ha, scale 0 to 10, 0 is no effect, 10 is complete control
# [22] = Preemergence, Rate 500 g/ha, scale of 0 to 10 where 0 is no effect and 10 is complete control
# [23] = Preemergence, Rate 250 g/ha, scale 0 to 10, 0 is no effect, 10 is complete control
# [24] = Postemergence, Rate 250 g/ha, scale 0 to 10
compound,measurement,setting,value
C=CCCCn1c(=O)on(C(=O)N(c2ccc(F)cc2F)C(C)C)c1=O [Compound 516],Giant foxtail plant response rating,[1]; [17],0
same,Giant foxtail plant response rating,[1]; [18],5
same,"Plant response rating, Giant foxtail",[1]; [19],9
same,"Plant response rating, Giant foxtail",[1]; [20],10
same,Giant foxtail plant response rating,[1]; [21],10
same,Giant foxtail plant response rating,[1]; [22],10
same,B. signalgrass plant response rating,[2]; [17],0
same,B. signalgrass plant response rating,[2]; [18],0
same,B. signalgrass plant response rating,"[2]; Postemergence, Rate 250 g/ha, scale 0 to 10, 0 no effect, 10 complete control",3
same,"Plant response rating, B. signalgrass",[2]; [19],5
same,"Plant response rating, B. signalgrass",[2]; [20],1
same,B. signalgrass plant response rating,[2]; [21],5
same,B. signalgrass plant response rating,[2]; [23],9
same,B. signalgrass plant response rating,"[2]; Preemergence, Rate 500 g/ha, scale 0 to 10, 0 is no effect, 10 is complete control",10
same,Nutsedge plant response rating,[3]; [17],0
same,Nutsedge plant response rating,[3]; [18],0
same,"Plant response rating, Nutsedge",[3]; [20],0
same,Nutsedge plant response rating,[3]; [21],0
same,Nutsedge plant response rating,[3]; [22],0
same,Soybean plant response rating,[4]; [17],4
same,Soybean plant response rating,[4]; [18],4
same,"Plant response rating, Soybean",[4]; [19],7
same,"Plant response rating, Soybean",[4]; [20],0
same,Soybean plant response rating,[4]; [21],0
same,Soybean plant response rating,[4]; [22],0
same,Wheat plant response rating,[5]; [17],0
same,Wheat plant response rating,[5]; [18],1
same,"Plant response rating, Wheat",[5]; [19],7
same,"Plant response rating, Wheat",[5]; [20],0
same,Wheat plant response rating,[5]; [21],0
same,Wheat plant response rating,[5]; [22],5
same,Crabgrass plant response rating,[6]; [17],3
same,Crabgrass plant response rating,[6]; [18],9
same,"Plant response rating, Crabgrass",[6]; [19],9
same,"Plant response rating, Crabgrass",[6]; [20],6
same,Crabgrass plant response rating,[6]; [21],9
same,Crabgrass plant response rating,[6]; [22],10
same,Corn plant response rating,[7]; [17],0
same,Corn plant response rating,[7]; [18],0
same,Corn plant response rating,[7]; [24],0
same,"Plant response rating, Corn",[7]; [19],0
same,"Plant response rating, Corn",[7]; [20],0
same,Corn plant response rating,[7]; [21],0
same,Corn plant response rating,[7]; [22],0
same,Velvetleaf plant response rating,[8]; [17],3
same,Velvetleaf plant response rating,[8]; [18],4
same,"Plant response rating, Velvetleaf",[8]; [19],4
same,"Plant response rating, Velvetleaf",[8]; [20],0
same,Velvetleaf plant response rating,[8]; [22],7
same,Wild oats plant response rating,[9]; [17],0
same,Wild oats plant response rating,[9]; [18],2
same,"Plant response rating, Wild oats",[9]; [19],5
same,"Plant response rating, Wild oats",[9]; [20],0
same,Wild oats plant response rating,[9]; [21],5
same,Wild oats plant response rating,[9]; [22],9
same,"Plant response rating, Bedstraw","[10]; Rate 62 g/ha, scale of 0 to 10 where 0 is no effect and 10 is complete control",0
same,Bedstraw plant response rating,[10]; Rate 125 g/ha,0
same,Bedstraw plant response rating,[10]; Rate 250 g/ha,1
same,Bedstraw plant response rating,[10]; Rate 500 g/ha,7
same,Redroot pigweed plant response rating,[11]; [17],4
same,"Plant response rating, Redroot pigweed",[11]; [19],8
same,"Plant response rating, Redroot pigweed",[11]; [20],7
same,Redroot pigweed plant response rating,[11]; [22],10
same,Blackgrass plant response rating,[12]; [17],0
same,Blackgrass plant response rating,[12]; [18],4
same,Blackgrass plant response rating,[12]; [24],7
same,"Plant response rating, Blackgrass",[12]; [19],7
same,"Plant response rating, Blackgrass",[12]; [20],3
same,Blackgrass plant response rating,[12]; [21],5
same,Blackgrass plant response rating,[12]; [23],8
same,Blackgrass plant response rating,[12]; [22],10
same,Morningglory plant response rating,[13]; [17],2
same,Morningglory plant response rating,[13]; [18],3
same,"Plant response rating, Morningglory",[13]; [19],7
same,"Plant response rating, Morningglory",[13]; [20],0
same,Morningglory plant response rating,[13]; [21],0
same,Morningglory plant response rating,[13]; [22],0
same,Sugarbeets plant response rating,[14]; [17],0
same,Sugarbeets plant response rating,[14]; [18],0
same,"Plant response rating, Sugarbeets",[14]; [19],8
same,"Plant response rating, Sugarbeets",[14]; [20],1
same,Sugarbeets plant response rating,[14]; [21],3
same,Sugarbeets plant response rating,[14]; [22],7
same,Cocklebur plant response rating,[15]; [17],2
same,Cocklebur plant response rating,[15]; [18],3
same,Cocklebur plant response rating,[15]; [24],3
same,"Plant response rating, Cocklebur",[15]; [19],5
same,"Plant response rating, Cocklebur",[15]; [20],0
same,Cocklebur plant response rating,[15]; [21],0
same,Cocklebur plant response rating,[15]; [23],0
same,Cocklebur plant response rating,[15]; [22],0
same,Rape plant response rating,[16]; [17],1
same,Rape plant response rating,[16]; [18],4
same,"Plant response rating, Rape",[16]; [19],9
same,"Plant response rating, Rape",[16]; [20],0
same,Rape plant response rating,[16]; [21],1
same,Rape plant response rating,[16]; [22],9
